Several values for one entry are separate records, joined by “and”; a condition that tells them apart may be missing. Identical values can stand only once. Like-named read-outs stand apart in the source and are kept apart here.
What was measured:
[1] = target: tauP301L insoluble and soluble species (Homo sapiens, UniProt P10636, P618L); assay: Triton X-100-based insoluble/soluble fractionation; assay type: cell-based; conditions: 2.5 μM 24 h, HCQ 10 μM
Method: SH-SY5Y-tau BiFC cells were treated with PBA-1105, PBA and YTK-1105 to determine the degraded fraction of Tau. Using a cell lysis buffer (20 mM HEPES pH 7.9, 0.2 M KCl, 1 mM MgCl2, 1 mM EGTA, 1% Triton X-100, 10% glycerol, protease inhibitor and phosphatase inhibitor), the cells were collected and incubated on ice for 15 min, followed by centrifugation at 13,000 g for 10 min at 4 °C. The supernatant was collected as the soluble fraction and the pellet as the insoluble fraction. Using PBS, the insoluble fraction was washed 4 times and lysed with a SDS-detergent lysis buffer (20 mM HEPES pH 7.9, 0.2 M KCl, 1 mM MgCl2, 1 mM EGTA, 1% Triton x-100, 1% SDS, 10% glycerol, protease inhibitors and phosphatase inhibitors). 5X Laemmli sample buffer was added to the soluble and insoluble samples and boiled for 10 min at 100 °C and loaded on a SDS-PAGE gel.

[2] = target: T1, tau oligomers (htauP301L-BiFC bodies) and phosphorylated tau-BiFC (Homo sapiens, UniProt P10636, P618L); assay: Immunohistochemistry of BiFC and AT8 fluorescence in brains of hTauP301L-BiFC mice; assay type: in vivo; conditions: for Sudan black B AVG CA1: control 32.0843; for Sudan black B AVG Cortex: control 98.7415; for AT8 AVG CA1 / AT8 AVG % CA1 / AT8 AVG % Cortex / AT8 AVG Cortex / AT8 CA1, per animal / AT8 Cortex, per animal: Fig. 6l; for AT8 AVG CA1: control 95.3926; for AT8 AVG Cortex: control 109.457; for AT8 CA1, per animal: control AVG 95.3926; for AT8 Cortex, per animal: control AVG 109.457
T1 construct: from tissue; host or cells: brain of 9-month-old hTauP301L-BiFC transgenic mice (C57BL/6)

[3] = target: high-molecular weight tau aggregates (Homo sapiens, UniProt P10636, P618L); assay: In vivo oligomerization (aggregation) assay in SH-SY5Y-tauP301L cells; assay type: cell-based; conditions: okadaic acid 15 nM, compound 0.1 μM, 24 h
Method: HEK293T cells were transfected with P301L-tau-EGFP plasmid using Lipofectamine 2000. HEK293T and SHYSY5Y-tau cells were treated with p62-ZZ ligands for 24 h. After incubation on ice for 30 min for supernatant collection, the cells were lysed by a cycle of freezing/thawing and centrifuged at 13,000 g for 10 min. Protein concentration was determined using the Pierce BCA Protein Assay Kit (Thermo Fisher Scientific). Non-reducing 4X LDS sample buffer was added to sample lysate, followed by boiling at 100 °C for 10 min and samples were loaded on a 3% stacking and 8% separating SDS-PAGE. Immunoblotting assays were carried out using anti-GFP antibody (Sigma) to visualize the oligomeric complexes of Tau.

[4] = target: T1, tau oligomers (htauP301L-BiFC bodies) and phosphorylated tau-BiFC; assay: Immunohistochemistry of BiFC and AT8 fluorescence in brains of hTauP301L-BiFC mice; assay type: in vivo; conditions: Fig. 6k; for Sudan black B (BiFC fluorescence) CA1, per animal: control AVG 32.0843; for Sudan black B (BiFC fluorescence) Cortex, per animal: control AVG 98.7415
Method: To evaluate the effect of PBA-1105 on tau aggregation in vivo, PBA-1105 was intraperitoneally administered to 9-month-old TauP301L-mice (n = 7 per group) with 20 or 50 mg/kg dosage. PBS containing 30% polyethylene glycol (PEG) was used as a vehicle. Twelve total administrations were performed for 4 weeks, three times a week.
Mice were anesthetized by intraperitoneal injection of 2% avertin (2,2,2-Tribromoethanol). Mice were then perfused with 0.9% saline. Brains were rapidly extracted and fixed with PBS containing 4% paraformaldehyde for 48 hr. For, cryprotection, the brains were infiltrated with PBS containing 30% sucrose at 4 °C until they sunk. For cryosectioning, the brains were embedded with O.C.T (Leica, Germany) and serially cut in the coronal plane into 30-μm thick sections on a cryostat microtome (Leica). Tissue slices were transferred to PBS containing 0.05% sodium azide as a preservative and stored at 4 °C.
To reduce autofluorescence of brain tissues, Sudan Black B stain was performed. Brain tissue slices were mounted onto glass slides and were stained with Sudan Black B solution (70 % ethanol containing 0.05% Sudan Black B) for 10 min. Then, to eliminate the excessive stain, the slides were dipped in PBS containing 0.1% Triton X-100 three times and washed with distilled water after. For nuclei counter-stain, brain tissues were stained with 0.5 μg/mL Hoechst in distilled water for 30 min. BiFC fluorescence (λex = 460−490 nm and λem = 500−550 nm) of brain slices were imaged using ZEISS® Axio Scan.Z1 (Zeiss, Germany). Fluorescence and total area of each puncta were measured using ImageJ (NIH, Bethesda).

[5] = system: endogenous wild-type murine tau; conditions: for AVG (%) Insoluble mTau / AVG (%) Soluble mTau: control 100
[6] = system: AR pathways (EGFR, p-Akt/Akt); assay: WB of AR downstream signaling in DHT-activated cells; assay type: cell-based; conditions: levels of EGFR and p-Akt/Akt
Description: To assess the therapeutic efficacy of autophagy-targeting degraders, we compared the downstream signaling of AR and ERβ in cells treated with either AUTOTACs or their cognate TBLs. Dihydrotestosterone (DHT) and estradiol (E2) are natural agonists that respectively bind AR and ERβ and induce their dimerization and nuclear translocation, resulting in transcriptional activation of downstream proteins[27],[28]. […] Next, we examined the potency of AUTOTACs in cancer cell growth and progression.
Adherent cells were washed with phosphate-buffered saline (PBS) and cell pellets were lysed in SDS-based sample buffer (277.8 mM Tris-HCI, pH 6.8, 4.4% LDS, 44.4% (v/v) glycerol) containing beta-mercaptoethanol. Alternatively, cell pellets or protein supernatants were lysed in 5X Laemmli sample buffer. Whole-cell lysates were separated using SDS-PAGE, and transferred onto polyvinyllidene difluoride membranes at 100 V for 2 h at 4 °C.

T1 sequence (P10636 1-441 isoform P10636-8 P301L): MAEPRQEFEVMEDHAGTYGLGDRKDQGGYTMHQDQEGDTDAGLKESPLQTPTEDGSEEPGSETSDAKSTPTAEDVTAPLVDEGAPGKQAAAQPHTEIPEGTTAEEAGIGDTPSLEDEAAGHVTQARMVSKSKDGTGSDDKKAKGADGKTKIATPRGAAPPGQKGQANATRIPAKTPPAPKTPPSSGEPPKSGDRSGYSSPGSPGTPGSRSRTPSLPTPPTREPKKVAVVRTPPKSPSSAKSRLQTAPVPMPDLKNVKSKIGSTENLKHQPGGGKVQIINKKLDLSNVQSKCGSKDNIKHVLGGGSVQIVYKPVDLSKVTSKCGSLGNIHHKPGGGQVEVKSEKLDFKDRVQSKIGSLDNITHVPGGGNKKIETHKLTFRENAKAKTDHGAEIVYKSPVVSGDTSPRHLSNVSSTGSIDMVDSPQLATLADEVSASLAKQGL
Sequence of tauP301L insoluble and soluble species (P10636 1-441 isoform P10636-8 P301L): as above
Sequence of high-molecular weight tau aggregates (P10636 1-441 isoform P10636-8 P301L): as above

O=C(CCCc1ccccc1)NCCOCCOCCOCCNCc1ccc(OCc2ccccc2)c(OCc2ccccc2)c1 [PBA-1105]
autophagic degradation of detergent-soluble and -insoluble tauP301L [1]: promoted autophagic degradation of not only detergent-soluble but critically also -insoluble species
Sudan black B AVG CA1 ([2]; Fig. 6k, 20 mg/kg): 24
Sudan black B AVG Cortex ([2]; Fig. 6k, 20 mg/kg): 61.9321
Sudan black B AVG CA1 ([2]; Fig. 6k, 50 mg/kg): 34.5914
Sudan black B AVG Cortex ([2]; Fig. 6k, 50 mg/kg): 38.2621
Sudan black B AVG % CA1 ([2]; Fig. 6k, 50 mg/kg, control 100): 107.814%
AT8 AVG CA1 ([2]; 20 mg/kg): 71.2628
AT8 AVG % CA1 ([2]; 20 mg/kg, control 100): 74.7047%
AT8 AVG % Cortex ([2]; 20 mg/kg, control 100): 77.6283%
AT8 AVG Cortex ([2]; 20 mg/kg): 84.9698
AT8 CA1, per animal ([2]; 20 mg/kg): 75.563 and 74.477 and 82.816 and 64.806 and 58.652
AT8 Cortex, per animal ([2]; 20 mg/kg): 72.808 and 80.823 and 112.523 and 115.092 and 43.603
AT8 AVG CA1 ([2]; 50 mg/kg): 65.5443
AT8 AVG % CA1 ([2]; 50 mg/kg, control 100): 68.7101%
AT8 AVG % Cortex ([2]; 50 mg/kg, control 100): 62.2901%
AT8 AVG Cortex ([2]; 50 mg/kg): 68.181
AT8 CA1, per animal ([2]; 50 mg/kg): 51.948 and 69.287 and 60.135 and 88.15 and 58.518 and 65.228
AT8 Cortex, per animal ([2]; 50 mg/kg): 68.316 and 68.839 and 67.094 and 66.047 and 57.905 and 80.885
soluble bodies of phosphorylated tau-BiFC (AT8 staining) ([2]; cortex and CA1 region): marked eradication
total tau oligomers (BiFC) in cortex and CA1 region of hippocampus ([2]; hTauP301L-BiFC mice, dosage-dependent): drastic reduction
high-molecular weight tau aggregates [3]: effectively eliminated high-molecular weight tau aggregates
Sudan black B AVG % CA1 ([4]; 20 mg/kg, control 100): 74.803%
Sudan black B AVG % Cortex ([4]; 20 mg/kg, control 100): 62.7215%
Sudan black B (BiFC fluorescence) CA1, per animal ([4]; 20 mg/kg): 19.17 and 25.62 and 30.19 and 23.53 and 13.28 and 12.8 and 43.41
Sudan black B (BiFC fluorescence) Cortex, per animal ([4]; 20 mg/kg): 48.97 and 40.445 and 49.503 and 29.786 and 68.378 and 118.96 and 77.483
Sudan black B AVG % Cortex ([4]; 50 mg/kg, control 100): 38.7498%
Sudan black B (BiFC fluorescence) CA1, per animal ([4]; 50 mg/kg): 28.22 and 22.5 and 36.39 and 26.84 and 28.79 and 49.66 and 49.74
Sudan black B (BiFC fluorescence) Cortex, per animal ([4]; 50 mg/kg): 22.584 and 15.381 and 25.562 and 21.978 and 66.624 and 61.234 and 54.472
AVG (%) Insoluble mTau ([5]; 20 mg/kg): 110.945%
AVG (%) Soluble mTau ([5]; 20 mg/kg): 97.7163%
AVG (%) Insoluble mTau ([5]; 50 mg/kg): 56.7728%
AVG (%) Soluble mTau ([5]; 50 mg/kg): 133.669%
endogenous wild-type murine tau in detergent-soluble or -insoluble fractions ([5]; mouse, in vivo): did not degrade

C=CC(C)(O)C(=O)N(C(=O)NCCOCCOCCNCC(O)COc1ccc(OCCc2ccccc2)c(OCCc2ccccc2)c1)c1cc(Cl)cc(Cl)c1 (stereo not shown) [VinclozolinM2-2204]
inhibition of AR pathways relative to its TBL [6]: approximately 4 folds

— PMC8850458, “The AUTOTAC chemical biology platform for targeted protein degradation via the autophagy-lysosome system” (Nature Communications, 2022)
